Laboratory results: publication PMC11125359 (Pharmaceuticals, 2024)
Read-outs that look alike come from different tables or passages of the source.

Experiments:
α-amylase = test: α-Amylase inhibition (anti-diabetic); format: biochemical; conditions: equal concentrations (1000 µg/mL); mean ± SE
α-glucosidase = test: α-Glucosidase inhibition (anti-diabetic); format: biochemical; conditions: equal concentrations (1000 µg/mL); mean ± SE
[1] = target: acetylcholinesterase (AChE) (Homo sapiens, UniProt P22303); test: biochemical; conditions: same concentration (1000 µg/mL); mean ± SE
Chain of acetylcholinesterase (AChE) (P22303 32-614, species assumed): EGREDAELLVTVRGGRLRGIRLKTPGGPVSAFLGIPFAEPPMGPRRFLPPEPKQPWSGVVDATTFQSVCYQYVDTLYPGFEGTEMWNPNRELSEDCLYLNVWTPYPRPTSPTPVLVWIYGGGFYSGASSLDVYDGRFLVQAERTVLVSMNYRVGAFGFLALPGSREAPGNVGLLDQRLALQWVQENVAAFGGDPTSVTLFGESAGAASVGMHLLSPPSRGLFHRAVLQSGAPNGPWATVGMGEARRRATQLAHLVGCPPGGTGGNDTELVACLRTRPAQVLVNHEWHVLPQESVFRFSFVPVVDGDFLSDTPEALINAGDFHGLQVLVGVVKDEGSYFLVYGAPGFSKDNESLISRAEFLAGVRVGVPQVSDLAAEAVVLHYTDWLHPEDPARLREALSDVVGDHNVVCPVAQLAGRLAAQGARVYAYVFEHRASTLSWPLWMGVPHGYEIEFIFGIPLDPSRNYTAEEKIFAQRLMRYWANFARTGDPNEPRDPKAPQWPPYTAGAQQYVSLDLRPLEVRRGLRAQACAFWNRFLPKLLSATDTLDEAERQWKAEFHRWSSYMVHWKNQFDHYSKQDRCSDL

[2] = target: bovine serum albumin (BSA) (Bos taurus, UniProt P02769); conditions: equal concentrations (1000 µg/mL); mean ± SE
Chain of bovine serum albumin (BSA) (P02769 25-607): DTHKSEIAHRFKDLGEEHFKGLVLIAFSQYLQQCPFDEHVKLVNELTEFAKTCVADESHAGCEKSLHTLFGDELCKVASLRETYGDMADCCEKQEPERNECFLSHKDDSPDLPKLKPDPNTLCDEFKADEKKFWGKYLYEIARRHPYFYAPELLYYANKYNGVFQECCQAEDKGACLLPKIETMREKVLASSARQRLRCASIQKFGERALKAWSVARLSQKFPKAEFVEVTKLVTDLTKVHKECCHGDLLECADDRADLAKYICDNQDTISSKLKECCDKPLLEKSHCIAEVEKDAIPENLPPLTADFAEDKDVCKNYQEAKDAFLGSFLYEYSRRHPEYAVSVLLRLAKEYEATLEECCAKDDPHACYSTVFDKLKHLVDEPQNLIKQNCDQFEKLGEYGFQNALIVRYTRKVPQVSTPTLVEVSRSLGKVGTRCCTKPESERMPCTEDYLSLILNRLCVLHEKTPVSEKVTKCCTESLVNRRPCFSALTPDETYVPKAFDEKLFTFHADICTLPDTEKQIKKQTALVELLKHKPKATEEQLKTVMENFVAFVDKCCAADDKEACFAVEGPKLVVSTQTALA

[3] = test system: proteinase enzyme (trypsin); test: Proteinase enzyme inhibition (anti-inflammatory); format: biochemical; conditions: equal concentrations (1000 µg/mL); mean ± SE
[4] = test system: human colon cancer (Caco-2) cell line; test: cells; format: cell-based; conditions: for Viability %, Caco-2, 1st concentration: Conc.: 5a 13.45, 5d 12.64, 5e 12.29, 5f 11.81, 7a 12.72, 7f 11.24, DOX 11.50; for Viability %, Caco-2, 2nd concentration: Conc.: 5a 26.91, 5d 25.27, 5e 24.58, 5f 23.63, 7a 25.43, 7f 22.48, DOX 23.00; for Viability %, Caco-2, 3rd concentration: Conc.: 5a 53.81, 5d 50.55, 5e 49.15, 5f 47.26, 7a 50.86, 7f 44.96, DOX 46.00; for Viability %, Caco-2, 4th concentration: Conc.: 5a 107.63, 5d 101.09, 5e 98.31, 5f 94.51, 7a 101.72, 7f 89.93, DOX 91.99; for Viability %, Caco-2, 5th concentration: Conc.: 5a 215.26, 5d 202.19, 5e 196.61, 5f 189.03, 7a 203.44, 7f 179.85, DOX 183.99; for IC50: Homo sapiens, Caco-2, 48 h, MTT, mean ± SE, read-out: Cytotoxic activity IC50, Colon (Caco-2); for Therapeutic Index (TI), Colon (Caco-2): IC50 on normal cells (WI-38)/IC50 on Caco-2
[5] = Cytotoxic activity, MTT assay, normal lung (WI-38); format: cell-based; conditions: human, WI-38 normal lung cells; for IC50 at 48 h: MTT, mean ± SE, read-out: Cytotoxic activity IC50, Normal Lung (WI-38)
caspase-3 [6] = test: Caspase-3 ELISA in treated A549 cells; format: cell-based, human; conditions: DMSO control 85.92 ± 0.12
Bcl-2 [7] = test: Bcl-2 ELISA in treated A549 cells; format: cell-based, human; conditions: DMSO control 9.83 ± 0.05
caspase-3 [8] = test: Caspase-3 ELISA in treated Caco-2 cells; format: cell-based, human; conditions: DMSO control 97.06 ± 0.14
Bcl-2 [9] = test: Bcl-2 ELISA in treated Caco-2 cells; format: cell-based, human; conditions: DMSO control 7.99 ± 0.08
[10] = Iron-reducing power (IRP); conditions: equal concentrations (1000 µg/mL); mean ± SE, three replicates
Protocol: (§1) All in vitro biological activities were assessed in the tested compounds at equal concentrations (1000 µg/mL). All assays were carried out in triplicate.
In vitro biological activities
(§2) The total antioxidant capacity (TAC) was determined by analyzing the green phosphate/Mo5+ complex at a wavelength (λ) of 695 nm, following the procedure described by Prieto
(§3) et al. Samples (at each concentration) were mixed with a reagent solution containing 0.3 N sulfuric
(§4) acid, 28 mM sodium phosphate, and 4 mM ammonium molybdate. Methanol (80%) was used in place
(§5) of the sample for the blank. The tubes were sealed and incubated in a boiling water bath for 90
(§6) minutes. After cooling to room temperature, the absorbance was measured at 695 nm against the
(§7) blank. Ascorbic acid was used at the same concentrations as a standard. The antioxidant capacity was
(§8) expressed as mg gallic acid equivalent per gram weight.
(§9) The iron reducing power was determined as µg/mL using the method proposed by Oyaizu
(§10) In brief, 1ml of the tested sample (at each concentration) was combined with 1mL of 200mM
(§11) sodium phosphate buffer (pH 6.6) and 1mL of 1% potassium ferricyanide. The mixture was then
(§12) incubated at 50°C for 20 minutes, followed by the addition of 1mL of trichloroacetic acid (10%). After
(§13) centrifugation at 2000rpm for 10 minutes, the upper layer solution (2.5 mL) was mixed with 2.5 mL of double deionized water and 1mL of fresh ferric chloride (0.1%). The absorbance was measured at
(§14) 700nm against a blank prepared without the sample. Ascorbic acid was used at the same
(§15) concentrations as a standard. A high absorbance at 700nm indicates a higher reducing power in the
(§16) The 1,1-Diphenyl-2-picryl-hydrazyl (DPPH) radical scavenging activities were evaluated using the method described by Rahman et al. An antioxidant substance capable of donating a
(§17) hydrogen atom to a solution containing DPPH- can reduce the stable free radical, causing the solution
(§18) to change color from violet to pale yellow. The remaining DPPH- radical was quantified by
(§19) nm using a spectroscopic method. Two milliliters of a DPPH solution (100 µM) in ethanol were mixed
(§20) with 2 mL of the sample (at each concentration). The reaction mixture for each concentration was
(§21) thoroughly vortexed and then incubated in the dark at room temperature for 30 minutes. The
(§22) absorbance was then measured spectrophotometrically at 518 nm against a blank (ethanol). For the
(§23) control, 2 mL of ethanol was added instead of the sample and run simultaneously with the test.
(§24) Ascorbic acid was used at the same concentrations as a positive control. Percent inhibition of the
(§25) DPPH free radical was calculated. The median inhibitory concentration (IC 50) for each tested
(§26) The procedure for the 2,2'-azinobis-(3-ethylbenzothiazoline-6-sulfonic acid) (ABTS) assay
(§27) potassium persulfate solution (2.4 mM). The working solution was prepared by mixing the two stock
(§28) solutions in equal quantities and allowing them to react at room temperature in a dark place for 14
(§29) hours. The solution was then diluted by mixing 1 mL of ABTS solution with 60 mL of methanol to
(§30) was prepared for each assay. The tested samples (at each concentration) were allowed to react with 1
(§31) mL of the ABTS solution, and the absorbance was taken at 734 nm after 7 minutes using a
(§32) spectrophotometer. The ABTS scavenging capacities of the samples were compared with that of
(§33) ascorbic acid (at the same concentrations).

[11] = ABTS radical scavenging assay; conditions: equal concentrations (1000 µg/mL); mean ± SE
Protocol: as §1
In vitro biological activities
as §2, §3, §4, §5, §6, §7, §8, §9, §10, §11, §12, §13, §14, §15, §16, §17, §18, §19, §20, §21, §22, §23, §24, §25, §26, §27, §28, §29, §30, §31, §32, §33

[12] = DPPH radical-scavenging activity; conditions: read-out: DPPH (IC50); mean ± SE, three replicates
[13] = test system: human lung cancer (A549) cell line; test: Cytotoxic activity, MTT assay, lung (A549); conditions: for Viability %, A549, 1st concentration: Conc.: 5a 13.45, 5d 12.64, 5e 12.29, 5f 11.81, 7a 12.72, 7f 11.24, DOX 11.50; for Viability %, A549, 2nd concentration: Conc.: 5a 26.91, 5d 25.27, 5e 24.58, 5f 23.63, 7a 25.43, 7f 22.48, DOX 23.00; for Viability %, A549, 3rd concentration: Conc.: 5a 53.81, 5d 50.55, 5e 49.15, 5f 47.26, 7a 50.86, 7f 44.96, DOX 46.00; for Viability %, A549, 4th concentration: Conc.: 5a 107.63, 5d 101.09, 5e 98.31, 5f 94.51, 7a 101.72, 7f 89.93, DOX 91.99; for Viability %, A549, 5th concentration: Conc.: 5a 215.26, 5d 202.19, 5e 196.61, 5f 189.03, 7a 203.44, 7f 179.85, DOX 183.99; for IC50: Homo sapiens, A549, 48 h, read-out: Cytotoxic activity IC50, Lung (A549)
Protocol: It will be assayed against human lung cancer (A549) and colon (Caco-2) cell line in
comparison with normal lung (WI-38) cell line using 3-(4,5-dimethythiazol-2-yl)-2,5-diphenyl
tetrazolium bromide (MTT) assay by determining the optical density (OD) at 570 nm according to the
The cells were dispensed in a 96-well sterile microplate (3
µL of each compound or doxorubicin (positive control, in DMSO) for 48 h in a serum free medium
prior to the MTT assay. Subsequently, the media were carefully removed, and 40 µL of MTT (2.5
mg/mL) was added to each well and then incubated for an additional 4 h. Purple formazan dye
crystals were solubilized by the addition of 200 µL of DMSO. The absorbance was measured at 570 nm using a SpectraMax Paradigm Multi-Mode microplate reader. The relative cell viability was
experiments were conducted in triplicate. Percent of the cell-growth inhibition (%) and the IC 50 was
calculated using IC 50 calculation software. The concentrations used for calculating the IC 50 depend on

[14] = Total antioxidant capacity (TAC), phosphomolybdenum method; conditions: equal concentrations (1000 µg/mL); mean ± SE, three replicates
Protocol: as §1
In vitro biological activities
as §2, §3, §4, §5, §6, §7, §8, §9, §10, §11, §12, §13, §14, §15, §16, §17, §18, §19, §20, §21, §22, §23, §24, §25, §26, §27, §28, §29, §30, §31, §32, §33

[15] = Conc. as printed: 5a 53.81, 5d 50.55, 5e 49.15, 5f 47.26, 7a 50.86, 7f 44.96, DOX 46.00, read-out: Viability %, WI-38, 3rd concentration
[16] = Conc. as printed: 5a 107.63, 5d 101.09, 5e 98.31, 5f 94.51, 7a 101.72, 7f 89.93, DOX 91.99, read-out: Viability %, WI-38, 4th concentration
[17] = Conc.: 5a 13.45, 5d 12.64, 5e 12.29, 5f 11.81, 7a 12.72, 7f 11.24, DOX 11.50, read-out: Viability %, WI-38, 1st concentration
[18] = Conc.: 5a 26.91, 5d 25.27, 5e 24.58, 5f 23.63, 7a 25.43, 7f 22.48, DOX 23.00, read-out: Viability %, WI-38, 2nd concentration
[19] = Conc.: 5a 215.26, 5d 202.19, 5e 196.61, 5f 189.03, 7a 203.44, 7f 179.85, DOX 183.99, read-out: Viability %, WI-38, 5th concentration

Row | SMILES | Inhibition (%) α-Amylase (α-amylase) [%] | Inhibition (%) α-Glucosidase (α-glucosidase) [%] | inhibition at 1000 µg/mL [1] [%] | Inhibition (%) Protein Denaturation [2] [%] | Inhibition (%) Proteinase [3] [%] | Viability %, Caco-2, 1st concentration [4] [%] | Viability %, Caco-2, 2nd concentration [4] [%] | Viability %, Caco-2, 3rd concentration [4] [%] | Viability %, Caco-2, 4th concentration [4] [%] | Viability %, Caco-2, 5th concentration [4] [%] | IC50 [4] [µM] | Therapeutic Index (TI), Colon (Caco-2) [4] | viability at 48 h [5, 15] [%] | viability at 48 h [5, 16] [%] | viability at 48 h [5, 17] [%] | viability at 48 h [5, 18] [%] | viability at 48 h [5, 19] [%] | IC50 at 48 h [5] [µM] | Caspase-3 level, Lung (A549) (caspase-3 [6]) [pg/mL] | Bcl-2 level, Lung (A549) (Bcl-2 [7]) [ng/mL] | other results
1 | COc1ccc(Nc2n[nH]c(N=Cc3ccc(N4CCCCC4)cc3)c2C(=O)Nc2ccc(Cl)cc2)cc1 [5f] | 31.77 ± 0.05 | 27.33 ± 0.05 | 42.76 ± 0.03 | 27.28 ± 0.03 | 23.72 ± 0.03 | 89.43 | 80.91 | 61.88 | 39.72 | 32.34 | 61.98 ± 0.12 | 7.95 | 76 | 60.7 | 87.9 | 82 | 44.8 | 493 ± 9.88 | 236.29 ± 0.33 | 3.57 ± 0.02 | Caspase-3 level, Colon (Caco-2) (caspase-3 [8]): 266.92 ± 0.39 pg/mL; Bcl-2 level, Colon (Caco-2) (Bcl-2 [9]): 2.91 ± 0.03 ng/mL; Iron-Reducing Power (IRP) [10]: 34.85 ± 0.07 µg/mL; ABTS (%) inhibition [11]: 76.74 ± 0.05%; IC50 [12]: 22.83 ± 0.01 µM; Viability %, A549, 1st concentration [13]: 97.46%; Viability %, A549, 2nd concentration [13]: 87.31%; Viability %, A549, 3rd concentration [13]: 60.91%; Viability %, A549, 4th concentration [13]: 46.48%; Viability %, A549, 5th concentration [13]: 20.20%; IC50 [13]: 60.45 ± 0.12 µM; Total Antioxidant Capacity (TAC) [14]: 53.14 ± 0.20 mg Gallic Acid/g
2 | Cc1c(C=Nc2[nH]nc(Nc3ccccc3)c2C(=O)Nc2ccccc2)c(=O)n(-c2ccccc2)n1C [7a] | 31.30 ± 0.05 | 26.91 ± 0.05 | 42.12 ± 0.03 | 26.87 ± 0.03 | 23.37 ± 0.03 | 70.21 | 50.65 | 40.04 | 26.27 | 22.93 | 42.42 ± 0.18 | 17.35 | 82.7 | 76.8 | 98.7 | 90.7 | 62.7 | 736 ± 7.95 | 322.21 ± 0.45 | 2.62 ± 0.01 | Caspase-3 level, Colon (Caco-2) (caspase-3 [8]): 363.98 ± 0.54 pg/mL; Bcl-2 level, Colon (Caco-2) (Bcl-2 [9]): 2.13 ± 0.02 ng/mL; Iron-Reducing Power (IRP) [10]: 34.33 ± 0.07 µg/mL; ABTS (%) inhibition [11]: 75.59 ± 0.05%; IC50 [12]: 24.94 ± 0.01 µM; Viability %, A549, 1st concentration [13]: 90.96%; Viability %, A549, 2nd concentration [13]: 79.91%; Viability %, A549, 3rd concentration [13]: 48.51%; Viability %, A549, 4th concentration [13]: 37.08%; Viability %, A549, 5th concentration [13]: 18.60%; IC50 [13]: 49.4 ± 0.18 µM; Total Antioxidant Capacity (TAC) [14]: 52.34 ± 0.19 mg Gallic Acid/g
